Earlier results, collected in patent publication US20080233201A1, “Method for Preparing Calibrated Biodegradable Microspheres” (priority 2004, published 2008).

Conditions: at 20° C.

CCOC(C)=O [Ethyl acetate]
solubility in water: 8.7 g/100 g of water
